Laboratory results taken from patent US5439933A (priority 1993, dated 1995).
Values after ≈ are worked out from the molar mass of the structure shown. “Also recorded” adds a separate entry of the source.

Tests used:
[1] = test system: HBL-100 human breast cells; assay: Cell proliferation assay (cell counts), HBL-100; type: cell-based; conditions: Table 5, 72 hours
Procedure: (§1) Tolytoxin and the other new scytophycin compounds are potent anticancer and antifungal agents. The cytotoxicity of tolytoxin and other new scytophycin compounds was determined using a cell proliferation assay, which tested the effect of the compounds on increases in cell numbers.
(§2) Cell lines were grown in plastic dishes (Falcon) in Eagle's basal medium supplemented with 5% newborn calf serum (KB), Fisher's medium supplemented with 10% horse serum (L1210), Dulbecco's modified Eagle's medium supplemented with 5% heat-inactivated fetal calf serum (LoVo), minimal essential medium supplemented with 2% heat-inactivated chicken serum (HEp-2), RPMI-1640 supplemented with 10% heat-inactivated fetal calf serum (T-47D, COLO-201) or 20% heat-inactivated fetal calf serum (HL-60, KATO-III), or McCoy's 5A supplemented with 10% heat-inactivated fetal calf serum (HBL-100). All cell culture media were supplemented with 50 μg/ml gentamycin sulfate. The cultures were incubated at 37° C. in a humidified atmosphere containing 5% carbon dioxide.
(§3) Cultures were exposed to graded concentrations of tolytoxin and reincubated for 72 hours in the presence of tolytoxin. […] Cell numbers were determined by hemacytometer counts. The IC50 for each cell line was determined by plotting the logarithm of the tolytoxin concentration versus growth (cell number as a percentage of the control) of the treated cells.

[2] = test system: KB human epidermoid carcinoma cells; assay: Cell proliferation assay (cell counts), KB; type: cell-based; conditions: 72 h
Procedure: as §1, §2
(§4) Cultures were exposed to graded concentrations of tolytoxin and reincubated for 72 hours in the presence of tolytoxin. Three dishes were used for each treatment. Cell numbers were determined by hemacytometer counts. The IC50 for each cell line was determined by plotting the logarithm of the tolytoxin concentration versus growth (cell number as a percentage of the control) of the treated cells.
(§5) The other new scytophycin compounds are also potent cytotoxins. For example, the IC50 of the scytophycins against KB human epidermoid carcinoma, LoVo human adenocarcinoma, and L1210 murine leukemia were determined using the cell proliferation assay described for tolytoxin.

[3] = test system: SKVLB (multi-drug resistant subline of SKOV3); assay: cells; type: cell-based, Human
Procedure: Human ovarian carcinoma cells (SKOV3) and a subline made multi-drug resistant by slowly increasing vinblastine in the culture medium over the course of many passages (SKVLB) were grown in Earle's basal medium (BME) containing 10% fetal calf serum. The SKVLB cells were maintained in the presence of 1 µg/mL vinblastine.
Cell proliferation was estimated by measurement of protein content of the cultured cells, as described by Skehan et al. (1990). Cells were plated into 24-well plates at approximately 10% confluency in BME and were allowed to attach and recover for at least 24 hours. The cells were then treated with the scytophycins or appropriate control for 48 hours. After the incubation, the medium was removed from each well and cells fixed by addition of 10% (w/v) trichloroacetic acid (TCA) (4° C.). The cells were incubated at 4° C. for one hour and then washed five times with water to remove TCA. The TCA-fixed cells were then stained for 30 minutes with 0.4% (w/v) sulforhodamine B prepared in 1% acetic acid. Following the staining, the cell layers were washed four times with 1% acetic acid. The cell layer was dissolved in 10 mM unbuffered tris-hydroxymethylaminomethane base. Absorbance of the solution was determined at 564 nm. Antiproliferative activity is manifested as decreased production of cellular protein.

[4] = test system: Candida albicans A26; assay: Antifungal agar dilution; type: cell-based; conditions: Candida albicans, A26, 48 h
Procedure: (§6) The new scytophycins are also useful as antifungal agents. Antimicrobial activity was determined by the agar dilution method. Tolytoxin was dissolved in 95% ethanol for addition to cooled, molten agar. Nystatin was solubilized in DMSO and diluted in distilled water. Appropriate solvent controls were also prepared. Fungal cultures were grown on Saboraud dextrose agar. Assay plates were incubated for 48 hours post-inoculation. Yeasts and filamentous fungi were incubated at 25° C.
(§7) Activity was determined using the method described above for tolytoxin.

[5] = test system: Sclerotium rofsii 2133; assay: Antifungal agar dilution; type: cell-based; conditions: 48 h
Procedure: as §6, §7

[6] = test system: Thielaviopsis paradoxa 1215; assay: Antifungal agar dilution; type: cell-based; conditions: Thielaviopsis paradoxa, 1215, 48 h
Procedure: as §6, §7

[7] = test system: Saccharomyces cerevisae; assay: Antifungal agar dilution; type: cell-based; conditions: Saccharomyces, 48 h
Procedure: as §6, §7

[8] = test system: Phytophthora nicotianae H729; assay: Antifungal agar dilution; type: cell-based; conditions: Phytophthora nicotianae, 48 h
Procedure: as §6, §7

[9] = Toxicity in mice, intraperitoneal; conditions: mouse, in vivo, ip, Swiss Webster mice
Procedure: In view of the cytotoxic effects observed with the new scytophycins, an experiment was performed to determine the toxicity level in an animal model. Various doses of tolytoxin were administered to Swiss Webster mice by the intraperitoneal route.

[10] = test system: Murine leukemia (L1210) cells; assay: Polynucleation / DNA content by flow cytometry; type: cell-based; conditions: 10 nM
Procedure: The following procedure employs new scytophycins to produce polynucleated mammalian cells. Murine leukemia (L1210) cells at a density of 1×10^5 cells/mL were treated with tolytoxin for periods ranging from 4 to 24 hours. Tolytoxin or the appropriate vehicle as a control was added in a volume of not more than 4.2 μL per 10 mL of cell suspension. The cell suspension was incubated at 37° C. in a humidified atmosphere of 95% air, 5% carbon dioxide. At the conclusion of the incubation, the cultures were chilled on ice and centrifuged at 200×g (gravity) for 10 minutes. The pelleted cells were fixed in 70% ethanol: 30% water for 1 hour. Aliquots of the fixed cell suspensions were washed twice with 0.01M phosphate buffered saline, pH 7.2-7.4. The cells were resuspended at approximately 1×10^6 /mL in modified Krishan's reagent (Krishan, 1975) containing 0.005% propidium iodide, ribonuclease A at 50 units/mL, 0.1% sodium citrate, and 0.3% Nonidet P-40. Following a 30 minute incubation at 4° C. the cell suspensions were passed 4 times through a 26-gauge needle before analysis on a Coulter Epics C flow cytometer, equipped with an Innova 90 argon laser tuned at 488 nm and set at 200 milliwatts. The fluorescence of 10,000 cells was used to generate the DNA histograms.

[11] = test system: Trichophyton mentagrophytes A23; assay: Antifungal agar dilution; type: cell-based; conditions: Trichophyton mentagrophytes, A23, 48 h
Procedure: as §6

[12] = test system: Phyllosticta capitalensis 689-5; assay: Antifungal agar dilution; type: cell-based; conditions: Phyllosticta capitalensis, 6895, 48 h
Procedure: as §6

[13] = test system: Alternaria alternata 1715; assay: Antifungal agar dilution; type: cell-based; conditions: Alternaria alternata, 1715, 48 h
Procedure: as §6

[14] = test system: Bipolaris incurvata 2118; assay: Antifungal agar dilution; type: cell-based; conditions: Bipolaris incurvata, 2118, 48 h
Procedure: as §6

[15] = test system: L1210 murine leukemia cells; assay: Cell proliferation assay (cell counts), L1210; type: cell-based; conditions: Mus musculus, L1210, 72 h
Procedure: as §1, §2, §4, §5

[16] = test system: COLO-201 human colon adenocarcinoma cells; assay: Cell proliferation assay (cell counts), COLO-201; type: cell-based; conditions: Table 5, 72 hours
Procedure: as §1, §2, §3

[17] = test system: Human epidermoid carcinoma (KB) cells; assay: Cell shape and nuclear protrusion by microscopy; type: cell-based
Procedure: In the following procedure new scytophycins were employed to cause nuclear protrusion in mammalian cells. Human epidermoid carcinoma (KB) cells were plated on plastic tissue-culture dishes in Dulbecco's modified Eagle's medium at 1×10^5 cells per 60 mm dish. The cell cultures were incubated overnight at 37° C. in a humidified atmosphere of 95% air and 5% carbon dioxide to allow the cells to settle and become attached. Following the incubation, tolytoxin or the appropriate vehicle control was added in a volume of not more than 35 μL per 5 mL of culture medium. After an additional incubation period ranging from 1 to 4 hours, the culture medium was removed and the cell layer washed twice with phosphate-buffered saline (PBS), pH 7.2. The washed cell layer was stained for 15 minutes with 0.01% acridine orange in PBS. Following staining, the cell suspension was washed for 15 minutes with two changes of PBS to remove unbound stain and photographed on a Zeiss IM-35 photomicroscope equipped with brightfield and epifluorescence optics.

[18] = test system: KATO-III human gastric carcinoma cells; assay: Cell proliferation assay (cell counts), KATO-III; type: cell-based; conditions: Table 5, 72 hours
Procedure: as §1, §2, §3

COC1CC2C=CCC(CC(OC)C3(CO3)C(OC)CC(OC)C(C)C(C(C)C(O)C(C)CCC(=O)C(C)C(OC)C(C)/C=C/N(C)C=O)OC(=O)/C=C/C(C)=C/C1O)O2 (stereo not shown) [Tolytoxin, 6-hydroxy-7-O-methylscytophycin B]
IC50 [1]: 2.4 nM | IC50 [2]: 5.3 nM | IC50 ([3]; Homo sapiens, SKVLB, 48 h, read-out: IC50 SKVLB): 25 nM | Fold-Resistance ([3]; Table 7, SKVLB vs SKOV3, 2880 min): 1 | MIC [4]: 8 nM (≈ 6.8 ng/mL) | MIC [5]: 1 nM (≈ 0.85 ng/mL) | MIC [6]: 1 nM (≈ 0.85 ng/mL) | MIC [7]: 4 nM (≈ 3.4 ng/mL) | MIC [8]: 4 nM (≈ 3.4 ng/mL) | LD50 [9]: ~1.5 mg/kg | multinucleated cells observed by microscopy ([10]; 4 to 24 hours): increasing numbers of multinucleated cells | proportion of cells in the G2 M phase ([10]; 4 to 24 hours): gradual increase | fraction of the cells with DNA contents greater than 4C ([10]; by 16 hours): approximately 1/3 | MIC [11]: 8 nM (≈ 6.8 ng/mL) | MIC [12]: 0.5 nM (≈ 0.425 ng/mL) | MIC [13]: 4 nM (≈ 3.4 ng/mL) | MIC [14]: 2 nM (≈ 1.7 ng/mL) | IC50 [15]: 3.9 nM | IC50 [16]: 0.52 nM | cell shape and surface appearance ([17]; 4 nM, 1 hour): fibroblastoid cellular shape and the appearance of blebs or zeioses on the cell surfaces; also recorded: the cells have lost their normal extended fibroblastoid shape, and the appearance of blebs or zeioses on the cell surface is apparent | migration of cell nucleus ([17]; 8nM, 4 hours): the cell nuclei have migrated out of their respective cell bodies; also recorded: The cell nucleus has migrated outside the body of the cell and now occupies one of the zeiotic processes | IC50 [18]: 0.78 nM
